Source: patent US11053204B2, “Pyrimidinyloxy benzene derivatives as herbicides” (FMC Corporation, priority 2015, dated 2021)

Tests used:
Format in all cases: in vivo
[1] = system: Italian ryegrass (Lolium multiflorum); assay: Test A preemergence, visual injury rating; settings: 0 to 100 scale (0 no effect, 100 complete control)
Outline: (§1)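 Greenhouse pot test, loam/sand soil. Formulation: non-phytotoxic solvent mix plus surfactant. Pre: directed spray onto soil after sowing. Post: plants at 1–2 leaf, 2–10 cm. Rated visually vs untreated controls at ~10 d, 0 (no effect) to 100 (complete control).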

[2] = system: barnyardgrass (Echinochloa crus-galli); assay: Test A preemergence, visual injury rating; settings: 0 to 100 scale (0 no effect, 100 complete control)
Outline: as §1

[3] = system: giant foxtail (Setaria faberii); assay: Test A preemergence, visual injury rating; settings: 0 to 100 scale (0 no effect, 100 complete control)
Outline: as §1

kochia (Kochia scoparia) [4] = assay: Test A preemergence, visual injury rating; settings: 0 to 100 scale (0 no effect, 100 complete control)
Outline: as §1

[5] = system: pigweed (Amaranthus retroflexus); assay: Test A preemergence, visual injury rating; settings: 0 to 100 scale (0 no effect, 100 complete control)
Outline: as §1

[6] = system: ragweed (common ragweed, Ambrosia elatior); assay: Test A preemergence, visual injury rating; settings: 0 to 100 scale (0 no effect, 100 complete control)
Outline: as §1

[7] = system: Italian ryegrass (Lolium multiflorum); assay: Test A postemergence, visual injury rating; settings: 0 is no effect, 100 is complete control
Text: (§2) Seeds of plant species selected from barnyardgrass (Echinochloa crus-galli), kochia (Kochia scoparia), ragweed (common ragweed, Ambrosia elatior), Italian ryegrass (Lolium multiflorum), large (Lg) crabgrass (Digitaria sanguinalis), giant foxtail (Setaria faberii), morningglory (Ipomoea spp.), pigweed (Amaranthus retroflexus), velvetleaf (Abutilon theophrasti), wheat (Triticum aestivum), and corn (Zea mays) were planted into a blend of loam soil and sand and treated preemergence with a directed soil spray using test chemicals formulated in a non-phytotoxic solvent mixture which included a surfactant.
(§3) At the same time, plants selected from these crop and weed species and also blackgrass (Alopecurus myosuroides), and galium (catchweed bedstraw, Galium aparine) were planted in pots containing the same blend of loam soil and sand and treated with postemergence applications of test chemicals formulated in the same manner. Plants ranged in height from 2 to 10 cm and were in the one- to two-leaf stage for the postemergence treatment. Treated plants and untreated controls were maintained in a greenhouse for approximately 10 days, after which time all treated plants were compared to untreated controls and visually evaluated for injury. Plant response ratings, summarized in Table A, are based on a 0 to 100 scale where 0 is no effect and 100 is complete control. A dash (-) response means no test result.

[8] = system: barnyardgrass (Echinochloa crus-galli); assay: Test A postemergence, visual injury rating; settings: 0 is no effect, 100 is complete control
Text: as §2, §3

[9] = system: blackgrass (Alopecurus myosuroides); assay: Test A postemergence, visual injury rating; settings: 0 is no effect, 100 is complete control
Text: as §2, §3

corn (Zea mays) = assay: Test A postemergence, visual injury rating; settings: 0 is no effect, 100 is complete control
Text: as §2, §3

[10] = system: galium (catchweed bedstraw, Galium aparine); assay: Test A postemergence, visual injury rating; settings: 0 is no effect, 100 is complete control
Text: as §2, §3

[11] = system: giant foxtail (Setaria faberii); assay: Test A postemergence, visual injury rating; settings: 0 is no effect, 100 is complete control
Text: as §2, §3

kochia (Kochia scoparia) [12] = assay: Test A postemergence, visual injury rating; settings: 0 is no effect, 100 is complete control
Text: as §2, §3

[13] = system: pigweed (Amaranthus retroflexus); assay: Test A postemergence, visual injury rating; settings: 0 is no effect, 100 is complete control
Text: as §2, §3

[14] = system: ragweed (common ragweed, Ambrosia elatior); assay: Test A postemergence, visual injury rating; settings: 0 is no effect, 100 is complete control
Text: as §2, §3

[15] = system: wheat (Triticum aestivum); assay: Test A postemergence, visual injury rating; settings: 0 is no effect, 100 is complete control
Text: as §2, §3

[16] = system: barnyardgrass (Echinochloa crus-galli); assay: Test B flooded paddy test, plant response rating; settings: 250 g ai/ha; Flood; scale of 0 to 100 where 0 is no effect and 100 is complete control; 13 to 15 days
Text: (§4) At time of treatment, test pots were flooded to 3 cm above the soil surface, treated by application of test compounds directly to the paddy water, and then maintained at that water depth for the duration of the test. Treated plants and controls were maintained in a greenhouse for 13 to 15 days, after which time all species were compared to controls and visually evaluated. […] A dash (-) response means no test result.

[17] = system: ducksalad (Heteranthera limosa); assay: Test B flooded paddy test, plant response rating; settings: 250 g ai/ha; Flood; scale of 0 to 100 where 0 is no effect and 100 is complete control; 13 to 15 days
Text: as §4

rice (Oryza sativa) = assay: Test B flooded paddy test, plant response rating; settings: 250 g ai/ha; Flood; scale of 0 to 100 where 0 is no effect and 100 is complete control; 13 to 15 days
Text: as §4

[18] = system: sedge, umbrella (small-flower umbrella sedge, Cyperus difformis); assay: Test B flooded paddy test, plant response rating; settings: 250 g ai/ha; Flood; scale of 0 to 100 where 0 is no effect and 100 is complete control; 13 to 15 days
Text: as §4

O=C(OCC1CC1(F)F)c1c(Br)cccc1Oc1ncc(Cl)cn1 (centres unmarked) [Compound 10]
10: Ryegrass, Italian plant response rating ([1]; 125 g ai/ha) | Ryegrass, Italian plant response rating (0 to 100 scale) ([7]; 125 g ai/ha) | Corn plant response rating (0 to 100 scale) (corn (Zea mays); 125 g ai/ha) | Ragweed plant response rating (0 to 100 scale) ([14]; 125 g ai/ha)
90: Kochia plant response rating (kochia (Kochia scoparia) [4]; 125 g ai/ha) | Blackgrass plant response rating (0 to 100 scale) ([9]; 500 g ai/ha) | Kochia plant response rating (0 to 100 scale) (kochia (Kochia scoparia) [12]; 125 g ai/ha) | Pigweed plant response rating (0 to 100 scale) ([13]; 125 g ai/ha)
100: Barnyardgrass plant response rating ([2]; 500 g ai/ha) | Foxtail, Giant plant response rating ([3]; 125 g ai/ha) | Foxtail, Giant plant response rating ([3]; 500 g ai/ha) | Kochia plant response rating (kochia (Kochia scoparia) [4]; 500 g ai/ha) | Pigweed plant response rating ([5]; 125 g ai/ha) | Pigweed plant response rating ([5]; 500 g ai/ha) | Barnyardgrass plant response rating (0 to 100 scale) ([8]; 500 g ai/ha) | Galium plant response rating (0 to 100 scale) ([10]; 125 g ai/ha) | Galium plant response rating (0 to 100 scale) ([10]; 500 g ai/ha) | Foxtail, Giant plant response rating (0 to 100 scale) ([11]; 500 g ai/ha) | Kochia plant response rating (0 to 100 scale) (kochia (Kochia scoparia) [12]; 500 g ai/ha) | Pigweed plant response rating (0 to 100 scale) ([13]; 500 g ai/ha)
40: Barnyardgrass plant response rating ([2]; 125 g ai/ha) | Wheat plant response rating (0 to 100 scale) ([15]; 500 g ai/ha)
20: Barnyardgrass plant response rating (0 to 100 scale) ([8]; 125 g ai/ha) | Blackgrass plant response rating (0 to 100 scale) ([9]; 125 g ai/ha)
50: Ragweed plant response rating (0 to 100 scale) ([14]; 500 g ai/ha)
30: Ryegrass, Italian plant response rating ([1]; 500 g ai/ha) | Foxtail, Giant plant response rating (0 to 100 scale) ([11]; 125 g ai/ha)
0: Ragweed plant response rating ([6]; 125 g ai/ha) | Ragweed plant response rating ([6]; 500 g ai/ha) | Wheat plant response rating (0 to 100 scale) ([15]; 125 g ai/ha) | Plant response rating, Barnyardgrass [16] | Plant response rating, Rice (rice (Oryza sativa))
80: Plant response rating, Ducksalad [17] | Plant response rating, Sedge, Umbrella [18]
60: Ryegrass, Italian plant response rating (0 to 100 scale) ([7]; 500 g ai/ha) | Corn plant response rating (0 to 100 scale) (corn (Zea mays); 500 g ai/ha)

CC(C)=CCOC(=O)c1c(Br)cccc1Oc1ncc(Cl)cn1 [Compound 11]
20: Pigweed plant response rating ([5]; 500 g ai/ha) | Barnyardgrass plant response rating (0 to 100 scale) ([8]; 500 g ai/ha) | Blackgrass plant response rating (0 to 100 scale) ([9]; 500 g ai/ha) | Galium plant response rating (0 to 100 scale) ([10]; 500 g ai/ha) | Foxtail, Giant plant response rating (0 to 100 scale) ([11]; 125 g ai/ha) | Foxtail, Giant plant response rating (0 to 100 scale) ([11]; 500 g ai/ha)
30: Barnyardgrass plant response rating ([2]; 500 g ai/ha)
0: Ryegrass, Italian plant response rating ([1]; 125 g ai/ha) | Ryegrass, Italian plant response rating ([1]; 500 g ai/ha) | Barnyardgrass plant response rating ([2]; 125 g ai/ha) | Kochia plant response rating (kochia (Kochia scoparia) [4]; 125 g ai/ha) | Kochia plant response rating (kochia (Kochia scoparia) [4]; 500 g ai/ha) | Pigweed plant response rating ([5]; 125 g ai/ha) | Ragweed plant response rating ([6]; 125 g ai/ha) | Ragweed plant response rating ([6]; 500 g ai/ha) | Ryegrass, Italian plant response rating (0 to 100 scale) ([7]; 125 g ai/ha) | Ryegrass, Italian plant response rating (0 to 100 scale) ([7]; 500 g ai/ha) | Blackgrass plant response rating (0 to 100 scale) ([9]; 125 g ai/ha) | Corn plant response rating (0 to 100 scale) (corn (Zea mays); 125 g ai/ha) | Kochia plant response rating (0 to 100 scale) (kochia (Kochia scoparia) [12]; 125 g ai/ha) | Ragweed plant response rating (0 to 100 scale) ([14]; 125 g ai/ha) | Ragweed plant response rating (0 to 100 scale) ([14]; 500 g ai/ha) | Wheat plant response rating (0 to 100 scale) ([15]; 125 g ai/ha) | Wheat plant response rating (0 to 100 scale) ([15]; 500 g ai/ha) | Plant response rating, Barnyardgrass [16] | Plant response rating, Ducksalad [17] | Plant response rating, Rice (rice (Oryza sativa)) | Plant response rating, Sedge, Umbrella [18]
60: Pigweed plant response rating (0 to 100 scale) ([13]; 500 g ai/ha)
100: Foxtail, Giant plant response rating ([3]; 500 g ai/ha)
40: Foxtail, Giant plant response rating ([3]; 125 g ai/ha) | Kochia plant response rating (0 to 100 scale) (kochia (Kochia scoparia) [12]; 500 g ai/ha)
10: Barnyardgrass plant response rating (0 to 100 scale) ([8]; 125 g ai/ha) | Corn plant response rating (0 to 100 scale) (corn (Zea mays); 500 g ai/ha) | Galium plant response rating (0 to 100 scale) ([10]; 125 g ai/ha) | Pigweed plant response rating (0 to 100 scale) ([13]; 125 g ai/ha)

CC(=O)c1c(Br)cccc1Oc1ncc(Cl)cn1 [Compound 12]
0: Kochia plant response rating (kochia (Kochia scoparia) [4]; 1000 g ai/ha) | Wheat plant response rating (0 to 100 scale) ([15]; 1000 g ai/ha) | Plant response rating, Barnyardgrass [16] | Plant response rating, Ducksalad [17] | Plant response rating, Rice (rice (Oryza sativa)) | Plant response rating, Sedge, Umbrella [18]
80: Barnyardgrass plant response rating ([2]; 1000 g ai/ha) | Ragweed plant response rating ([6]; 1000 g ai/ha) | Barnyardgrass plant response rating (0 to 100 scale) ([8]; 1000 g ai/ha) | Galium plant response rating (0 to 100 scale) ([10]; 1000 g ai/ha) | Kochia plant response rating (0 to 100 scale) (kochia (Kochia scoparia) [12]; 1000 g ai/ha)
70: Foxtail, Giant plant response rating (0 to 100 scale) ([11]; 1000 g ai/ha)
100: Foxtail, Giant plant response rating ([3]; 1000 g ai/ha) | Pigweed plant response rating ([5]; 1000 g ai/ha) | Pigweed plant response rating (0 to 100 scale) ([13]; 1000 g ai/ha)
20: Corn plant response rating (0 to 100 scale) (corn (Zea mays); 1000 g ai/ha)
40: Ryegrass, Italian plant response rating ([1]; 1000 g ai/ha)
60: Ragweed plant response rating (0 to 100 scale) ([14]; 1000 g ai/ha)
50: Ryegrass, Italian plant response rating (0 to 100 scale) ([7]; 1000 g ai/ha) | Blackgrass plant response rating (0 to 100 scale) ([9]; 1000 g ai/ha)
